pEC50: −log10 of the molar value. Like-named read-outs stand apart in the source and are kept apart here.
Legend:
Format in all cases: biochemical
[1] = molecular target: T1, JAK3 (catalytic domain, His-tag) (Homo sapiens, UniProt P52333); experiment: JAK kinase assay (HTRF, phosphorylation of TK substrate-biotin), JAK3; details: ATP at Km (2 μM)
T1 construct: All four purified enzymes contain only the catalytic domain; His (N); purchased Carna Biosciences, Inc; host or cells: baculovirus expression system
T1 sequence (P52333 822-1111 limits assumed): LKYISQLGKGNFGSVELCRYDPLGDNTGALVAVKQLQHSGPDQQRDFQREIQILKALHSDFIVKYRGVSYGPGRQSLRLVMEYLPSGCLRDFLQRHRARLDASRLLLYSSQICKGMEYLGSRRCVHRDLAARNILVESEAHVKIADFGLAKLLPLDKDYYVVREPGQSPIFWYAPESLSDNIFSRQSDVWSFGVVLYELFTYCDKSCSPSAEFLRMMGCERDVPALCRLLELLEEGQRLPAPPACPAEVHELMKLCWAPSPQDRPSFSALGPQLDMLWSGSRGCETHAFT
Method in brief: (§1)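 Compound was mixed with TK substrate-biotin (1 μM final), then kinase plus ATP at its Km was added and left 20-30 min at room temperature. Detection mix with EDTA, Streptavidin-XL665 and STK Ab Cryptate stopped the reaction; after overnight dark incubation, HTRF was read and EC50 derived.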

[2] = molecular target: T2, JAK2 (catalytic domain, His-tag) (Homo sapiens, UniProt O60674); experiment: JAK kinase assay (HTRF, phosphorylation of TK substrate-biotin), JAK2; details: ATP at Km (4 μM)
T2 construct: All four purified enzymes contain only the catalytic domain; His (N); purchased Carna Biosciences, Inc; host or cells: baculovirus expression system
T2 sequence (O60674 849-1124 limits assumed): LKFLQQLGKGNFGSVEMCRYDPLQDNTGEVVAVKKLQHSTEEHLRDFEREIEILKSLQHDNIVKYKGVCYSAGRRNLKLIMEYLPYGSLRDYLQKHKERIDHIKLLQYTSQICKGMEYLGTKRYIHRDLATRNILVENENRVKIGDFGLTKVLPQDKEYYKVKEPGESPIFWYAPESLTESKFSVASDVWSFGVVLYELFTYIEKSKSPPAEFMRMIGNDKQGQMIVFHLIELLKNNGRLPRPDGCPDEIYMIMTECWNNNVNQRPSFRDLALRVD
Method in brief: as §1

[3] = molecular target: T3, TYK2 (aa 871-1187, catalytic domain, GST-tag) (Homo sapiens, UniProt P29597); experiment: JAK kinase assay (HTRF, phosphorylation of TK substrate-biotin), TYK2; details: ATP at Km (13 μM)
T3 construct: JAK1 (aa 850-1154) and TYK2 (aa 871-1187) are expressed with an N-terminally fused GST-tag; GST (N); purchased Carna Biosciences, Inc; host or cells: baculovirus expression system
T3 sequence (P29597 871-1187): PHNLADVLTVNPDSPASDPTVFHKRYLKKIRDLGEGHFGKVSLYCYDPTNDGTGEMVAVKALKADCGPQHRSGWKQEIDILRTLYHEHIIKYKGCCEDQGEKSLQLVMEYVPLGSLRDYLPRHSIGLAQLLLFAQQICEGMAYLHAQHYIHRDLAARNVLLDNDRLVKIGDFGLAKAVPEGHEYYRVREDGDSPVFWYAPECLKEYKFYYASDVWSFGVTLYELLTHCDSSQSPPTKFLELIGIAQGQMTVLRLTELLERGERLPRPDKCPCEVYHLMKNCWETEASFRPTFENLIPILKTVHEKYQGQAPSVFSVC
Method in brief: as §1

[4] = molecular target: T4, JAK1 (aa 850-1154, catalytic domain, GST-tag) (Homo sapiens, UniProt P23458); experiment: JAK kinase assay (HTRF, phosphorylation of TK substrate-biotin), JAK1; details: ATP at Km (7 μM)
T4 construct: JAK1 (aa 850-1154) and TYK2 (aa 871-1187) are expressed with an N-terminally fused GST-tag; GST (N); purchased Carna Biosciences, Inc; host or cells: baculovirus expression system
T4 sequence (P23458 850-1154): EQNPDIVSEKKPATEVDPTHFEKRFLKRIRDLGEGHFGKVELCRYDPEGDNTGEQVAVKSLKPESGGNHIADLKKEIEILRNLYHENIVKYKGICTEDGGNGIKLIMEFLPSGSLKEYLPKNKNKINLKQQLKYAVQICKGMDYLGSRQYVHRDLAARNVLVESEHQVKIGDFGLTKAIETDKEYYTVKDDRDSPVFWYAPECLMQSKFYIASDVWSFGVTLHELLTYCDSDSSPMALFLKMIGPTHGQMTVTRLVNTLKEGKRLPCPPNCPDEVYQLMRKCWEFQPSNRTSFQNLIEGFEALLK
Method in brief: as §1

[5] = read-out: JAK3 kinase inhibitory activity (EC50 indicator)
[6] = read-out: JAK2 kinase inhibitory activity (EC50 indicator)
[7] = read-out: TYK2 kinase inhibitory activity (EC50 indicator)
[8] = read-out: JAK1 kinase inhibitory activity (EC50 indicator)
[9] = HTRF assay, read-out: JAK3 kinase inhibitory activity (EC50 indicator)
[10] = HTRF assay, read-out: JAK2 kinase inhibitory activity (EC50 indicator)
[11] = HTRF assay, read-out: TYK2 kinase inhibitory activity (EC50 indicator)
[12] = HTRF assay, read-out: JAK1 kinase inhibitory activity (EC50 indicator)
[13] = HTRF assay, read-out: JAK3 kinase inhibitory activity (EC50)
[14] = HTRF assay, read-out: JAK2 kinase inhibitory activity (EC50)
[15] = HTRF assay, read-out: TYK2 kinase inhibitory activity (EC50)
[16] = HTRF assay, read-out: JAK1 kinase inhibitory activity (EC50)

Structure (SMILES)	pEC50 [1, 5]	pEC50 [2, 6]	pEC50 [3, 7]	pEC50 [4, 8]	pEC50 [1, 9]	pEC50 [2, 10]	pEC50 [3, 11]	pEC50 [4, 12]	further results
CS(=O)(=O)c1ccc(CC(=O)N2C3CCC2CN(c2ncnc4[nH]ccc24)C3)cc1 [Example 134, 2-(4-Methanesulfonyl-phenyl)-1-[3-(7H-pyrrolo[2,3-d]pyrimidin-4-yl)-3,8-diaza-bicyclo[3.2.1]oct-8-yl]-ethanone]	< 6.30	6.30 to 7.00	< 6.30	6.30 to 7.00	–	–	–	–	–
N#Cc1ccc(C(=O)N2CCN(c3ncnc4[nH]ccc34)CC23CC3)c(F)c1 [Example 92, 3-Fluoro-4-[7-(7H-pyrrolo[2,3-d]pyrimidin-4-yl)-4,7-diaza-spiro[2.5]octane-4-carbonyl]-benzonitrile]	6.30 to 7.00	> 7.00	6.30 to 7.00	> 7.00	–	–	–	–	–
O=C(CNc1ccccc1)N1CCN(c2ncnc3[nH]ccc23)CC12CC2 [Example 451, 2-Phenylamino-1-[7-(7H-pyrrolo[2,3-d]pyrimidin-4-yl)-4,7-diaza-spiro[2.5]oct-4-yl]-ethanone]	–	–	–	–	–	–	–	–	pEC50 [1, 13]: 6.30 to 7.00; pEC50 [2, 14]: > 7.00; pEC50 [3, 15]: < 6.30; pEC50 [4, 16]: > 7.00
O=C(Cc1ccccc1)N1[C@@H]2CC[C@H]1CN(c1ncnc3[nH]ccc13)C2 [Example 32, 2-Phenyl-1-[3-(7H-pyrrolo[2,3-d]pyrimidin-4-yl)-3,8-diazabicyclo[3.2.1]oct-8-yl]ethanone]	< 6.30	6.30 to 7.00	< 6.30	6.30 to 7.00	–	–	–	–	–
N#Cc1cccc(CC(=O)N2[C@@H]3CC[C@@H]2CN(c2ncnc4[nH]ccc24)C3)c1 [Example 179, 3-{2-Oxo-2-[3-(7H-pyrrolo[2,3-d]pyrimidin-4-yl)-3,8-diaza-bicyclo[3.2.1]oct-8-yl]-ethyl}-benzonitrile]	< 6.30	6.30 to 7.00	< 6.30	6.30 to 7.00	–	–	–	–	–
CS(=O)(=O)c1ccc(C(=O)N2CCN(c3ncnc4[nH]ccc34)CC23CC3)cc1N1CCCC1 [Example 194, (4-Methanesulfonyl-3-pyrrolidin-1-yl-phenyl)-[7-(7H-pyrrolo[2,3-d]pyrimidin-4-yl)-4,7-diaza-spiro[2.5]oct-4-yl]-methanone]	6.30 to 7.00	> 7.00	< 6.30	> 7.00	–	–	–	–	–
N#CCC(=O)N1[C@@H]2CC[C@H]1CN(c1ncnc3[nH]ccc13)C2 [Example 53, 3-Oxo-3-[3-(7H-pyrrolo[2,3-d]pyrimidin-4-yl)-3,8-diazabicyclo[3.2.1]oct-8-yl]propionitrile]	6.30 to 7.00	6.30 to 7.00	< 6.30	6.30 to 7.00	–	–	–	–	–
NS(=O)(=O)c1ccc(NCC(=O)N2CCN(c3ncnc4[nH]ccc34)CC23CC3)cc1 [Example 454, 4-{2-Oxo-2-[7-(7H-pyrrolo[2,3-d]pyrimidin-4-yl)-4,7-diaza-spiro[2.5]oct-4-yl]-ethylamino}-benzenesulfonamide]	–	–	–	–	–	–	–	–	pEC50 [1, 13]: 6.30 to 7.00; pEC50 [2, 14]: > 7.00; pEC50 [3, 15]: 6.30 to 7.00; pEC50 [4, 16]: > 7.00
O=C([C@@H]1CCCc2ccccc21)N1C2CCC1CN(c1ncnc3[nH]ccc13)C2 [Example 137, [3-(7H-Pyrrolo[2,3-d]pyrimidin-4-yl)-3,8-diaza-bicyclo[3.2.1]oct-8-yl]-(1,2,3,4-tetrahydro-naphthalen-1-yl)-methanone]	< 6.30	6.30 to 7.00	< 6.30	< 6.30	–	–	–	–	–
O=C(c1ccc2cc[nH]c2c1)N1CCN(c2ncnc3[nH]ccc23)CC12CC2 [Example 36, (1H-Indol-6-yl)-[7-(7H-pyrrolo[2,3-d]pyrimidin-4-yl)-4,7-diazaspiro[2.5]oct-4-yl]methanone]	< 6.30	6.30 to 7.00	< 6.30	6.30 to 7.00	–	–	–	–	–
N#CCOc1cccc(CC(=O)N2CCN(c3ncnc4[nH]ccc34)CC23CC3)c1 [Example 70, (3-{2-Oxo-2-[7-(7H-pyrrolo[2,3-d]pyrimidin-4-yl)-4,7-diaza-spiro[2.5]oct-4-yl]-ethyl}-phenoxy)-acetonitrile]	6.30 to 7.00	6.30 to 7.00	< 6.30	6.30 to 7.00	–	–	–	–	–
COc1cccc(C(=O)N2CCN(c3ncnc4[nH]ccc34)CC23CC3)c1OC [Example 212, (2,3-Dimethoxy-phenyl)-[7-(7H-pyrrolo[2,3-d]pyrimidin-4-yl)-4,7-diaza-spiro[2.5]oct-4-yl]-methanone]	–	–	–	–	< 6.30	> 7.00	< 6.30	6.30 to 7.00	–
Cn1c(C(=O)N2C3CCC2CN(c2ncnc4[nH]ccc24)C3)ccc1S(N)(=O)=O [Example 141, 1-Methyl-5-[3-(7H-pyrrolo[2,3-d]pyrimidin-4-yl)-3,8-diaza-bicyclo[3.2.1]octane-8-carbonyl]-1H-pyrrole-2-sulfonic acid amide]	> 7.00	> 7.00	< 6.30	> 7.00	–	–	–	–	–
Cc1cc2[nH]c(C(=O)N3[C@@H]4CC[C@H]3CN(c3ncnc5[nH]ccc35)C4)cc2cc1F [Example 110, (5-Fluoro-6-methyl-1H-indol-2-yl)-[3-(7H-pyrrolo[2,3-d]pyrimidin-4-yl)-3,8-diaza-bicyclo[3.2.1]oct-8-yl]-methanone]	6.30 to 7.00	6.30 to 7.00	< 6.30	> 7.00	–	–	–	–	–
O=C(c1cccc(C(F)(F)F)c1)N1CCN(c2ncnc3[nH]ccc23)CC12CC2 [Example 20, [7-(7H-Pyrrolo[2,3-d]pyrimidin-4-yl)-4,7-diazaspiro[2.5]oct-4-yl]-(3-trifluoromethylphenyl)methanone]	6.30 to 7.00	> 7.00	6.30 to 7.00	> 7.00	–	–	–	–	–
O=C(Cc1ccncc1)N1CCN(c2ncnc3[nH]ccc23)CC12CC2 [Example 21, 2-Pyridin-4-yl-1-[7-(7H-pyrrolo[2,3-d]pyrimidin-4-yl)-4,7-diazaspiro[2.5]oct-4-yl]ethanone]	6.30 to 7.00	> 7.00	< 6.30	> 7.00	–	–	–	–	–
O=C(c1csc2ccccc12)N1CCN(c2ncnc3[nH]ccc23)CC12CC2 [Example 214, Benzo[b]thiophen-3-yl-[7-(7H-pyrrolo[2,3-d]pyrimidin-4-yl)-4,7-diaza-spiro[2.5]oct-4-yl]-methanone]	–	–	–	–	> 7.00	> 7.00	> 7.00	> 7.00	–

Continued, in another order:

pEC50 [1, 5]	pEC50 [2, 6]	pEC50 [3, 7]	pEC50 [4, 8]	pEC50 [1, 9]	pEC50 [2, 10]	pEC50 [3, 11]	pEC50 [4, 12]	Structure (SMILES)	further results
–	–	–	–	6.30 to 7.00	> 7.00	6.30 to 7.00	> 7.00	O=C(c1cc2c(F)cccc2[nH]1)N1CCN(c2ncnc3[nH]ccc23)CC12CC2 [Example 368, (4-Fluoro-1H-indol-2-yl)-[7-(7H-pyrrolo[2,3-d]pyrimidin-4-yl)-4,7-diaza-spiro[2.5]oct-4-yl]-methanone]	–
–	–	–	–	6.30 to 7.00	> 7.00	6.30 to 7.00	> 7.00	Cc1cc(C(=O)N2CCN(c3ncnc4[nH]ccc34)CC23CC3)ccc1S(C)(=O)=O [Example 403, (4-Methanesulfonyl-3-methyl-phenyl)-[7-(7H-pyrrolo[2,3-d]pyrimidin-4-yl)-4,7-diaza-spiro[2.5]oct-4-yl]-methanone]	–
–	–	–	–	6.30 to 7.00	6.30 to 7.00	< 6.30	6.30 to 7.00	COc1cnc2[nH]ccc2c1N1CCN(C(=O)c2csc3ccccc23)C2(CC2)C1 [Example 289, Benzo[b]thiophen-3-yl-[7-(5-methoxy-1H-pyrrolo[2,3-b]pyridin-4-yl)-4,7-diaza-spiro[2.5]oct-4-yl]-methanone]	–
–	–	–	–	< 6.30	> 7.00	< 6.30	6.30 to 7.00	O=C(c1csc2ccccc12)N1CCN(c2ccnc3[nH]ccc23)CC12CC2 [Example 233, Benzo[b]thiophen-3-yl-[7-(1H-pyrrolo[2,3-b]pyridin-4-yl)-4,7-diaza-spiro[2.5]oct-4-yl]-methanone]	–
–	–	–	–	< 6.30	< 6.30	< 6.30	< 6.30	N#Cc1cccc(CC(=O)N2CCN(c3ccnc4[nH]ccc34)CC23CC3)c1 [Example 236, 3-{2-Oxo-2-[7-(1H-pyrrolo[2,3-b]pyridin-4-yl)-4,7-diaza-spiro[2.5]oct-4-yl]-ethyl}-benzonitrile]	–

Reference: patent US9346809B2 (LEO PHARMA A/S, priority 2009, dated 2016)
